Values after ≈ are worked out from the molar mass of the structure shown.
conditions: buffer; pH 7.4; 200.0 µM

| Structure (SMILES) | solubility kinetic [µg/mL] |
| --- | --- |
| COc1ccc(S(N)(=O)=O)cc1C(=O)OCC(=O)Nc1ncc(Cl)c(C)c1Cl | 24 (≈ 53.5 µM) |
| Cc1ccc(S(=O)(=O)NC(=O)c2ccccc2C)cc1 | > 43.4 |
| S=c1[nH]c2cc(Cl)c3cccnc3c2o1 | > 35.5 |
| Cc1cc(NC(=O)c2ccc(-c3ccccc3F)o2)no1 | 0.6 (≈ 2.1 µM) |
| Nc1cccc(S(=O)(=O)Nc2ccccc2)c1 | > 37.2 |
| C[N+]12CCCCC1[C@@H](CO)CCC2.[Br-] (stereo partly specified) | 39.1 |
| CCC(=O)NN1CCN(c2ccncc2S(=O)(=O)N2CCCCC2)CC1 | > 57.2 |
| CCOc1ccc(C(=O)NCC(=O)N2CCCC2)cc1 | > 41.5 |
| C(=Nc1cccc2c(N=Cc3ccco3)cccc12)c1ccco1 | 46.7 (≈ 149 µM) |
| C/C(=N\NC(N)=O)c1c(O)n(C)c(=O)n(C)c1=O | > 38.3 |
| COC(=O)C1=C(Nc2cc(Cl)cc(Cl)c2)CSC1 | < 0.7 |
| COc1ccc(CN(C)CC(=O)N2CCc3ccccc3C2)cc1 | > 48.7 |
| Fc1ccccc1N1CCN(c2ncnc3nc[nH]c23)CC1 | 1.3 (≈ 4.36 µM) |
| N/C(CN1CCSCC1)=N\OCc1c(F)cccc1Cl | 40.4 (≈ 127 µM) |
| Oc1cncc(Cc2ccccc2)c1 | > 27.8 |
| O=C(CS(=O)(=O)c1ccccc1)NC1CCCCC1 | > 42.2 |
| Cc1nc2sccc2c(=O)n1N | > 27.2 |
| CS(=O)(=O)N(CC(=O)N1CCCCC1)Cc1ccccc1 | > 46.6 |
| CC(C)c1ccccc1OCCCCCN1CCOCC1 | 25.8 (≈ 88.5 µM) |
| Cc1nc2c(C#N)c[nH]n2c(=O)c1CCO | > 32.7 |
| O=C(NCc1ccco1)c1cccc(C(F)(F)F)c1 | > 40.4 |

| Structure (SMILES) | solubility kinetic [µg/mL] |
| --- | --- |
| COc1ccc(C(=O)NC(C)C2CC3CCC2C3)c(OC)c1 (stereo unspecified) | > 45.5 |
| CC(C)(C)NC(=O)C1CC1(c1ccccc1)c1ccccc1 (stereo unspecified) | 2.8 (≈ 9.54 µM) |
| COc1ccc(/C=C/C(=O)O)cc1S(=O)(=O)N1CCc2ccccc21 | > 53.9 |
| O=C(CCCn1cc([N+](=O)[O-])cn1)NCc1ccccc1 | > 43.2 |
| O=C(c1cc([N+](=O)[O-])cc([N+](=O)[O-])c1)N1CCN(C(=O)c2ccco2)CC1 | 54 (≈ 144 µM) |
| NC(=O)COC(=O)CCCSc1nc2ccccc2s1 | > 46.6 |
| CC(=O)c1cccc(NC(=O)c2cc(=O)c3ccccc3o2)c1 | < 0.7 |
| Cc1cc(-c2ccc([N+](=O)[O-])cc2)nc2ccccc12.Cl | 1 |
| O=C(NN1CCOCC1)c1cccc(Br)c1 | > 42.8 |
| CCNC(=S)Nc1cccc(NC(=O)c2ccccc2O)c1 | 42 (≈ 133 µM) |
| COc1ccc(C(C)(C)C)cc1NC(=O)CCN1C(=O)NC(C)(C)C1=O | 52.7 (≈ 146 µM) |
| CC1C(=O)C(C)C(c2ccc(Cl)cc2)NC1c1ccc(Cl)cc1.Cl (stereo unspecified) | < 0.8 |
| CC1CC(C)CN(S(=O)(=O)c2ccc(Cl)cc2)C1 (stereo unspecified) | 9.3 (≈ 32.3 µM) |
| CC(=O)O[C@H](CC(=O)O)C[N+](C)(C)C.[Cl-] | > 36 |
| Br.COc1ccc(C2=CSC3=NCCN23)cc1OC | > 51.5 |
| O=C(O)c1ccc(OCCN2CCCC2=O)cc1 | 27.6 (≈ 111 µM) |
| Clc1ccccc1NC1=NCCCS1 | > 34 |
| O=S1(=O)CCC(NC(=S)Nc2ccc3ccccc3c2)C1 (stereo unspecified) | 15.3 (≈ 47.7 µM) |
| O=C(NCc1cccnc1)c1ccc(NS(=O)(=O)c2cccc([N+](=O)[O-])c2)cc1 | > 61.9 |
| Cc1ccccc1Nc1ccc([N+](=O)[O-])cn1 | > 34.4 |
| O=C(CCCC(=O)N1CCCC1)N1CCCC1 | 26.3 (≈ 110 µM) |

| Structure (SMILES) | solubility kinetic [µg/mL] |
| --- | --- |
| CC1=C(C(=O)Nc2ccc(C(=O)NCCC(C)C)cc2)SCCO1 | 46.3 (≈ 133 µM) |
| Cc1ccc(CNCC(O)(c2ccccc2)c2ccccc2)cc1 | 6 (≈ 18.9 µM) |
| CC1CN(CC(=O)Nc2nc3ccccc3s2)CC(C)O1 (stereo unspecified) | 39 (≈ 128 µM) |
| COc1cccc(C(=O)Nc2ccc(Oc3cccc(C(F)(F)F)c3)nc2)c1 | < 0.4 |
| Cl.O=[N+]([O-])c1cc(S(=O)(=O)CCCN2CCOCC2)ccc1F | > 55.3 |
| C=CCn1c(SCC#N)nc2sc(CC)cc2c1=O | 7 (≈ 24 µM) |
| Cn1ncc(C(=O)N=S(C)(=O)c2ccccc2)c1[N+](=O)[O-] (stereo unspecified) | > 46.2 |
| O=C(NCCS(=O)(=O)N1CCCC1)c1ccccc1 | > 42.4 |
| Cc1nc(N2CCN(Cc3ccc4c(c3)OCO4)CC2)[nH]c(=O)c1C | > 51.4 |
| Nc1nc(SCc2ccc(F)cc2)ns1 | 33.6 (≈ 139 µM) |
| Cc1cc(NC(=O)CSc2nnc(C)n2-c2ccccc2C)no1 | > 51.5 |
| CSc1c(CN2CCN(C)CC2)c2ccccc2n1C.Cl | 52.9 |
| O=C(NCc1ccccc1)c1ccc(CSc2ccccc2)o1 | 11.1 (≈ 34.3 µM) |
| c1ccc(SCc2nc3ccccc3s2)nc1 | 17.8 (≈ 68.9 µM) |
| Cc1c(C=O)c2cc(OCc3ccccc3)ccc2n1C | < 0.6 |
| COc1ccccc1CNC(=O)COC(=O)c1cccs1 | 8.4 (≈ 27.5 µM) |
| COc1cc(CNCCO)ccc1OCCc1ccccc1 | > 45.2 |
| Cc1nccn1-c1ccc(C=O)cc1 | 27.6 (≈ 148 µM) |
| CC(C)c1ccc(C(=O)NCCCN2CCOCC2)cc1 | > 43.6 |

Reference: PubChem BioAssay AID1996
